Assay results from patent US7074596B2, “Synthesis and use of anti-reverse mRNA cap analogues” (Board of Supervisors of Louisiana State University And …, priority 2002, dated 2006).

Columns and labels:
SP6 polymerase = target: T1, SP6 polymerase (Enterobacteria phage SP6, UniProt P06221); assay: Analysis of cap orientation in in vitro-synthesized RNA transcripts by RNase T2 + TAP digestion and anion exchange HPLC; format: biochemical, bacteriophage SP6; conditions: for Product observed RNase T2 + TAP: pGp* (normal orientation of the cap) / Product observed RNase T2 + TAP: 7-methylated pGp* product (reverse orientation of the cap): short RNA (43 bases) from Ncol-digested pSP-luc+, [α-32P]ATP, share of 5′ end labeled digestion product; for Orientation of incorporation into RNA (in words): RNase T2 and TAP digestion, HPLC, FIG. 2
T1 construct: purchased Promega
T1 sequence (P06221 1-874): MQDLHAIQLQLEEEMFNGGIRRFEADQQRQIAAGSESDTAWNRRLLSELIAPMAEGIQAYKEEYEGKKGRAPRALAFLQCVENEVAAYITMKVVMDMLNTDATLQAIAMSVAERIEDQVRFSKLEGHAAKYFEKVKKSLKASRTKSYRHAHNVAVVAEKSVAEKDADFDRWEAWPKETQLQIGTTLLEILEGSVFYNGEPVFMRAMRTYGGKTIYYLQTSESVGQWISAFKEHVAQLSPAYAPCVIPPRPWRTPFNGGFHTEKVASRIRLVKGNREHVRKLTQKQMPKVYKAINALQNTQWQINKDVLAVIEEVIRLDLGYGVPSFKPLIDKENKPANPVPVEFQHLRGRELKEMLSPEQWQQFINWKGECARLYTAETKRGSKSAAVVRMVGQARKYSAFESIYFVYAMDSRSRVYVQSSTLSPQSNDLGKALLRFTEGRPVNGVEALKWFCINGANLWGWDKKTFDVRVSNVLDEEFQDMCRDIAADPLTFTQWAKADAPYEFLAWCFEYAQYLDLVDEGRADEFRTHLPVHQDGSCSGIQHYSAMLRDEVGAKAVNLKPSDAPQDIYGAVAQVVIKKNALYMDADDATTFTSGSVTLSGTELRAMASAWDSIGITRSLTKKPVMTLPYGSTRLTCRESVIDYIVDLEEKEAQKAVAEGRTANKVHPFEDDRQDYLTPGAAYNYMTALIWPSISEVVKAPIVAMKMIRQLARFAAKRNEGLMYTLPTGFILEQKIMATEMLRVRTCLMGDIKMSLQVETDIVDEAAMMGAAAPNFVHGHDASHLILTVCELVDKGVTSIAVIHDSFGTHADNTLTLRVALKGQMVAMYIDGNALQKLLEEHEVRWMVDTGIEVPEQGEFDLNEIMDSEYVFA
Procedure: Mono- and dinucleotides obtained by enzymatic digestion of in vitro-synthesized RNAs were analyzed by HPLC using a Waters 625 instrument with a 996 PDA detector on a 4.5×250 mm Partisil 10SAX/25 column (Whatman). The program for elution of nucleotides comprised water for the first 5 min; a linear gradient of […]; a linear gradient of 87.5 to 500 mM of KH2PO4 over 30 min; and isocratic elution at 500 mM KH2PO4 for 21 min—all at a flow rate of 1 mL/min.
Two lengths of RNA, either uncapped or capped with one of the cap analogues, were synthesized by in vitro transcription. The DNA template used for both lengths of RNA was pSP−luc+ (Promega), which contains an SP6 bacteriophage promoter and a sequence encoding luciferase. To generate the short RNAs (43 bases exclusive of the cap), the plasmid was digested with Ncol. To generate the long RNAs (1706 bases, containing the entire luciferase coding region), the plasmid was digested with EcoRl. A typical 20 μL in vitro transcription reaction contained 40 mM Tris-HCl, pH 7.9, 6 mM MgCl2, 2 mM spermidine, 10 mM DTT, 2 μg BSA, 20 units of RNasin (Promega), 0.5 mM ATP, 0.5 mM CTP, 0.5 mM UTP, 0.1 mM GTP, 1 mM cap analogue (GpppG, m7GpppG, m^73′dGpppG, or m2^7,O3′GpppG), 0.2–1.0 μg DNA, and 20 units of SP6 polymerase (Promega). Reactions to synthesize the short RNAs also contained 28 μCi of [α-^32P]ATP (ICN), and those to synthesize the long RNAs contained 0.8 μCi of [α-^32P]CTP (ICN). Reaction mixtures were incubated for 60 min at 37° C., extracted with phenol and chloroform, and the solution was made 2 M in sodium acetate. The nucleic acids were then precipitated with 3 volumes of ethanol on dry ice for 5 min, and the mixture was centrifuged at 14,000 rpm for 30 min. The resulting pellet was dissolved in water, and the solution was made 0.2 M in sodium acetate. The nucleic acid was precipitated with 2.5 volumes of ethanol at 4° C. for 30 min, and the mixture was centrifuged at 14,000 rpm for 30 min. The pellet was allowed to air-dry and then dissolved in diethylpyrocarbonate-treated water.
The short RNAs were digested with 67 U RNase T2 (Life Technologies) in 15 μL of 0.14 M sodium acetate, pH 4.6, at 37° C. for 60 min. In some cases, the RNAs were subjected to a two-step digestion instead. The first digestion was with 10 U TAP (tobacco acid pyrophosphatase) (Epicentre Technologies) in 5 μL of 50 mM sodium acetate, pH 6.0, 1 mM EDTA, 0.1% β-mercaptoethanol, and 0.01% Triton X-100 at 37° C. for 60 min. The digestion was continued for 60 min at 37° C. with 67 U RNase T2 in a final volume of 16 μL of 0.12 M sodium acetate, pH 4.6. Samples were analyzed without further treatment by anion exchange HPLC as described above.
The structure of the ARCAs was designed to prevent incorporation into RNA in the reverse orientation. […] To obtain a higher proportion of radioactivity in the cap versus the internal positions, a shorter DNA template was produced by cleaving pSP−luc+ with Ncol instead of EcoRl. This digestion was expected to yield an RNA product of 43 bases (plus the cap).
RNase T2 digests RNA with no base specificity. Thus, it was expected to generate primarily 3′-NMPs from this RNA. Those nucleotide residues that were located 5′ to an A residue would acquire a ^32P-labeled 3′-phosphate by nearest-neighbor transfer. The pyrophosphate bonds in the cap, however, are not susceptible to RNase T2. Since the first nucleotide residue after the cap in the synthetic RNA is an A, the α-phosphate of [α-^32P]ATP would be transferred to the cap following RNase T2 digestion.

elF4E = target: T2, elF4E (Oryctolagus cuniculus, UniProt P29338); assay: Competitive inhibition of cell-free translation of globin mRNA in the RRL system; format: biochemical, rabbit; conditions: FIG. 3
T2 construct: A micrococcal nuclease-treated RRL (rabbit reticulocyte lysate) system was used for in vitro translation; from tissue; host or cells: rabbit reticulocyte lysate, micrococcal nuclease-treated
T2 sequence (P29338 whole entry): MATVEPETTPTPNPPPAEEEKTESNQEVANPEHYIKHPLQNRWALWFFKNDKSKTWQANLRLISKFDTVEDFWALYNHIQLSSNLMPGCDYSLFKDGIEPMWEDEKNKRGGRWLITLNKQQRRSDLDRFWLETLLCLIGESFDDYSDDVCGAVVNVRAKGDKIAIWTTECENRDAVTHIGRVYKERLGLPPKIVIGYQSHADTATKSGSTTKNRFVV
Procedure: The ability of cap analogues to inhibit cell-free translation in the RRL system programmed with globin mRNA was measured as described in Cai et al. (1999). Data were fit by least squares minimization to a theoretical rate equation.
We separately tested GpppG, m^7GpppG, and the two ARCAs for their ability to compete with natural globin mRNA for recognition by the translational machinery, and thereby to inhibit translation in an RRL system. […] Natural rabbit globin mRNA was translated at 5 μg/mL in the RRL system, and globin synthesis was detected by incorporation of [^3H]Leu into protein.

[1] = tested on: RRL (rabbit reticulocyte lysate) system; assay: Translation of capped luciferase mRNAs in the RRL system (luciferase activity); format: biochemical; conditions: translated 60 min in RRL, slope of luciferase activity versus mRNA concentration, FIG. 4
Excerpt: Two lengths of RNA, either uncapped or capped with one of the cap analogues, were synthesized by in vitro transcription. The DNA template used for both lengths of RNA was pSP−luc+ (Promega), which contains an SP6 bacteriophage promoter and a sequence encoding luciferase. To generate the short RNAs (43 bases exclusive of the cap), the plasmid was digested with Ncol. To generate the long RNAs (1706 bases, containing the entire luciferase coding region), the plasmid was digested with EcoRl. […]
A micrococcal nuclease-treated RRL (rabbit reticulocyte lysate) system was used for in vitro translation as described in A. Cai et al., “Quantitative assessment of mRNA cap analogs as inhibitors of in vitro translation,” Biochemistry, vol.38, pp. 8538–8547 (1999). In some cases, the mRNA used in this system was natural rabbit globin mRNA, and protein synthesis was measured by incorporation of [^3H]Leu into a trichloroacetic acid-precipitable form. […]
FIG. 4 depicts the translational activity of the ARCA-capped mRNAs. […] The RNAs were translated for 60 min in the RRL system, and luciferase activity was measured in triplicate by luminometry (RLU, relative light units). […]

SMILES	Product observed RNase T2 + TAP: pGp* (normal orientation of the cap) (SP6 polymerase) [%]	Inhibition of translation (in words) (elF4E; natural rabbit globin mRNA in RRL system)	Orientation of incorporation into RNA (in words) (SP6 polymerase)	Product observed RNase T2 + TAP: 7-methylated pGp* product (reverse orientation of the cap) (SP6 polymerase) [%]	Translational efficiency of capped luciferase mRNA (in words) [1]	Extent of reverse capping (SP6 polymerase; experiments of FIG. 2 and Table 3)	Ki (elF4E; natural rabbit globin mRNA 5 μg/mL, [3H]Leu incorporation, least-squares fit of translation data, read-out: Kl, dissociation constant for the cap analogue•elF4E complex) [µM]
Nc1nc2c(ncn2[C@@H]2O[C@H](COP(=O)(O)OP(=O)(O)OP(=O)(O)OC[C@H]3O[C@@H](n4cnc5c(=O)[nH]c(N)nc54)[C@H](O)[C@@H]3O)[C@@H](O)[C@H]2O)c(=O)[nH]1 [GpppG, reference compound]	100	did not act as an inhibitor	–	–	–	–	–
CO[C@H]1[C@@H](O)[C@H](n2c[n+](C)c3c(=O)[nH]c(N)nc32)O[C@@H]1COP(=O)(O)OP(=O)(O)OP(=O)(O)OC[C@H]1O[C@@H](n2cnc3c(=O)[nH]c(N)nc32)[C@H](O)[C@@H]1O [m2^7,O3′GpppG, P^1-3′-O, 7-Dimethylguanosine-5′P^3-guanosine-5′triphosphate]	100	–	incorporated in only one orientation	0	more efficient in translation than m^7GpppG-capped mRNA	–	–
Cn1c[n+](C2OC(COP(=O)(O)OP(=O)(O)OP(=O)(O)OCC3OC(n4cnc5c(=O)[nH]c(N)nc54)C(O)C3O)C(O)C2O)c2nc(N)nc([O-])c21 (centres unmarked) [m^7GpppG, m^7G(5′)ppp(5′)G, reference compound]	67	–	–	33	–	approximately 33%	27.8 ± 12.6
C[n+]1cn([C@@H]2O[C@H](COP(=O)(O)OP(=O)(O)OP(=O)(O)OC[C@H]3O[C@@H](n4cnc5c(=O)[nH]c(N)nc54)[C@H](O)[C@@H]3O)C[C@H]2O)c2nc(N)[nH]c(=O)c21 [m^73′dGpppG, P^1-3′-Deoxy-7-methylguanosine-5′ P^3-guanosine-5′triphosphate]	100	–	incorporated in only a single orientation	0	more efficient in translation than m^7GpppG-capped mRNA	–	–
